According to ChEMBL document CHEMBL4002573, “New insights into the SAR and drug combination synergy of 2-(quinolin-4-yloxy)acetamides against Mycobacterium tuberculosis” (Eur J Med Chem, 2017):
Values after ≈ are worked out from the molar mass of the structure shown.

Assays:
[1] = tested on: Mycobacterium tuberculosis; experiment: microbe, parasite or virus in culture; conditions: H37Rv, 168 h
Description: Antimycobacterial activity against Mycobacterium tuberculosis H37Rv after 7 days by resazurin reduction microplate assay

[2] = Thermodynamic solubility of the compound in 0.1N HCl at pH 1.5 after 24 hrs by HPLC method; assay type: physicochemical; conditions: read-out: Therm_solubility
[3] = Half life in human liver S9 fraction at 2 uM by HPLC-MS/MS analysis; assay type: ADME, tissue-based
[4] = Cytotoxicity against African green monkey Vero cells assessed as viability at 10 uM after 72 hrs by MTT assay relative to control; assay type: cell-based; conditions: chlorocebus sabaeus, read-out: Activity
[5] = Cytotoxicity against mouse RAW264.7 cells assessed as viability at 10 uM after 72 hrs by MTT assay relative to control; assay type: cell-based; conditions: read-out: Activity
[6] = Permeability of the compound at 1 uM […] by PAMPA; assay type: physicochemical; conditions: read-out: permeability
[7] = Cytotoxicity against human HaCaT cells assessed as viability at 10 uM after 72 hrs by MTT assay relative to control; assay type: cell-based; conditions: read-out: Activity
[8] = Intrinsic clearance in human liver S9 fraction at 2 uM by HPLC-MS/MS analysis; assay type: ADME, tissue-based
[9] = Thermodynamic solubility of the compound in acetate buffer at pH 4 after 24 hrs by HPLC method; assay type: physicochemical; conditions: read-out: Therm_solubility
[10] = Kinetic solubility in PBS at pH 7.4; assay type: physicochemical; conditions: read-out: Kinetic_solubility
[11] = Cytotoxicity against human HepG2 cells assessed as viability at 10 uM after 72 hrs by MTT assay relative to control; assay type: cell-based; conditions: read-out: Activity
[12] = Kinetic solubility in water at pH 5.8; assay type: physicochemical; conditions: read-out: Kinetic_solubility
[13] = tested on: Mycobacterium tuberculosis; experiment: microbe, parasite or virus in culture; conditions: PE-003, 168 h
Description: Antimycobacterial activity against Mycobacterium tuberculosis PE-003 clinical isolate after 7 days by resazurin reduction microplate assay

[14] = tested on: Mycobacterium tuberculosis; experiment: Bactericidal activity against Mycobacterium tuberculosis H37Rv infected in mouse RAW264.7 cells assessed as bacterial colony formation at 5 uM after 5 days (reference value: 4.1 to 4.73 log10CU); assay type: functional
[15] = tested on: Mycobacterium tuberculosis; experiment: microbe, parasite or virus in culture; conditions: CDCT-4 (1105/09), 168 h
Description: Antimycobacterial activity against Mycobacterium tuberculosis CDCT-4 (1105/09) clinical isolate after 7 days by resazurin reduction microplate assay

[16] = Cytotoxicity against mouse N9 cells assessed as viability at 10 uM after 72 hrs by MTT assay relative to control; assay type: cell-based; conditions: read-out: Activity
[17] = tested on: Mycobacterium tuberculosis; assay type: functional; conditions: H37Rv, 168 h
[18] = tested on: Mycobacterium tuberculosis; assay type: functional; conditions: H37Rv, 168 h; remark: listed apart in the source
[19] = tested on: Mycobacterium tuberculosis; assay type: functional; conditions: H37Rv, 168 h; remark: listed apart in the source
[20] = tested on: Mycobacterium tuberculosis; assay type: functional; conditions: H37Rv, 168 h; remark: listed apart in the source
[21] = tested on: Mycobacterium tuberculosis; assay type: functional; conditions: H37Rv, 168 h; remark: listed apart in the source
[22] = tested on: Mycobacterium tuberculosis; assay type: functional; conditions: H37Rv, 168 h; remark: listed apart in the source

`CCc1cc(OCC(=O)Nc2ccccc2OC)c2cc(OC)ccc2n1` gave an MIC [1] of 0.86 µM.
Compound `COc1ccc2nc(C)cc(OCC(=O)N[C@@H]3CCCc4ccccc43)c2c1` has an MIC [1] of 13.3 µM.
`COc1ccc2nc(C)cc(OCC(=O)Nc3cccc4c3CCCC4)c2c1` showed an MIC [1] of 0.83 µM.
For `COc1ccc2nc(C)cc(OCC(=O)Nc3ccc(C)cc3)c2c1`, the solubility thermodynamic at 24 h [2] was 1200 µM (≈ 404 µg/mL), the half-life at 2 µM [3] was 25.4 min and the viability at 72 h, 10 µM [4] was 95%. The viability at 72 h, 10 µM [5] was 92%, the Papp at 1 µM [6] was 11.4 ×10⁻⁶ cm/s and the viability at 72 h, 10 µM [7] was 100%. For the same compound, the CLhep predicted at 2 µM [8] was 13.5 mL/min/kg, the solubility thermodynamic at 24 h [9] was 2100 µM (≈ 706 µg/mL) and the solubility kinetic [10] was 17.9 µM (≈ 6.02 µg/mL). It also gave a viability at 72 h, 10 µM [11] of 80%, a solubility kinetic [12] of 17 µM (≈ 5.72 µg/mL) and an MIC [13] of 40 nM (≈ 0.0135 µg/mL). It also gave an Activity [14] of 3.38 log10CFU, an MIC [1] of 0.12 µM and an MIC [15] of 0.04 µM (≈ 0.0135 µg/mL). The viability at 72 h, 10 µM [16] was 106%.
Work on `CCc1ccc(NC(=O)COc2cc(C)nc3ccc(OC)cc23)cc1` yielded a solubility thermodynamic at 24 h [2] of 790 µM (≈ 277 µg/mL), a half-life at 2 µM [3] of 12.8 min and a viability at 72 h, 10 µM [4] of 80%. For the same compound, the viability at 72 h, 10 µM [5] was 91%, the viability at 72 h, 10 µM [7] was 96% and the CLhep predicted at 2 µM [8] was 16.6 mL/min/kg. For the same compound, the solubility thermodynamic at 24 h [9] was 430 µM (≈ 151 µg/mL), the solubility kinetic [10] was 3.8 µM (≈ 1.33 µg/mL) and the viability at 72 h, 10 µM [11] was 75%. It also gave a solubility kinetic [12] of 5.2 µM (≈ 1.82 µg/mL), an MIC [13] of 6 nM (≈ 0.0021 µg/mL) and an Activity [14] of 2.81 log10CFU. The MIC [1] was 0.06 µM, the MIC [15] was less than 0.06 µM and the viability at 72 h, 10 µM [16] was 112%.
`CO[C@H]1/C=C/O[C@@]2(C)Oc3c(C)c(O)c4c(O)c(c(/C=N/N5CCN(C)CC5)c(O)c4c3C2=O)NC(=O)/C(C)=C\C=C\[C@H](C)[C@H](O)[C@@H](C)[C@@H](O)[C@@H](C)[C@H](OC(C)=O)[C@@H]1C` [RIFAMPIN] gave an Activity [14] of 2.44 log10CFU, an MIC [1] of 0.038 µg/mL and an MIC [15] greater than 100 µM.
For `CCCc1cc(OCC(=O)Nc2ccccc2OC)c2cc(OC)ccc2n1`, the MIC [1] was greater than 26.3 µM.
`NNC(=O)c1ccncc1` [ISONIAZID] gave an MIC [13] greater than 70000 nM, an Activity [14] of 2.44 log10CFU and an MIC [1] of 0.16 to 1.46 µM. It also gave an MIC [15] greater than 70 µM.
For `CC[C@@H](CO)NCCN[C@@H](CC)CO` [ETHAMBUTOL], the MIC [1] was 2.5 to 5 µg/mL.
Compound `COc1ccc2nc(C)cc(OCC(=O)N(C)c3ccccc3OC)c2c1` has an MIC [1] greater than 27.3 µM.
Work on `CCCc1ccc(NC(=O)COc2cc(C)nc3ccc(OC)cc23)cc1` yielded a solubility thermodynamic at 24 h [2] of 260 µM (≈ 94.8 µg/mL), a half-life at 2 µM [3] of 30.2 min and a viability at 72 h, 10 µM [4] of 87%. It also gave a viability at 72 h, 10 µM [5] of 83%, a Papp at 1 µM [6] of 1.3 ×10⁻⁶ cm/s and a viability at 72 h, 10 µM [7] of 86%. It also gave an MIC [17] of 2.5 ng/mL (≈ 0.00686 µM), an MIC [18] of 5 ng/mL (≈ 0.0137 µM) and a CLhep predicted at 2 µM [8] of 12.7 mL/min/kg. It also gave a solubility thermodynamic at 24 h [9] of 90 µM (≈ 32.8 µg/mL), a solubility kinetic [10] of 2.4 µM (≈ 0.875 µg/mL) and an MIC [19] of 5 ng/mL (≈ 0.0137 µM). For the same compound, the viability at 72 h, 10 µM [11] was 64%, the MIC [20] was 2.5 ng/mL (≈ 0.00686 µM) and the MIC [21] was 2.5 ng/mL (≈ 0.00686 µM). It also gave a solubility kinetic [12] of 3.9 µM (≈ 1.42 µg/mL), an MIC [13] of 5 nM (≈ 0.00182 µg/mL) and an Activity [14] of 2.76 log10CFU. The MIC [22] was 0.02 µg/mL (≈ 0.0549 µM), the MIC [1] was 0.005 to 0.05 µM and the MIC [15] was less than 0.05 µM. For the same compound, the viability at 72 h, 10 µM [16] was 106%.
`COc1ccc2nc(C)cc(OCC(=O)N[C@H]3CCCc4ccccc43)c2c1` gave an MIC [1] of 1.66 µM.
Work on `COc1ccc2nc(C)c(Cc3ccccc3)c(OCC(=O)Nc3ccccc3OC)c2c1` yielded an MIC [1] greater than 22.6 µM.
In the case of `COc1ccc2nc(C)cc(NCC(=O)Nc3ccccc3OC)c2c1`, the MIC [1] is reported as greater than 28.5 µM.
Work on `COc1ccc2nc(C)cc(OCC(=O)N3CCCCC3)c2c1` yielded an MIC [1] greater than 31.8 µM.
With `CN[C@@H]1[C@H](O[C@H]2[C@H](O[C@H]3[C@H](O)[C@@H](O)[C@H](N=C(N)N)[C@@H](O)[C@@H]3N=C(N)N)O[C@@H](C)[C@]2(O)C=O)O[C@@H](CO)[C@H](O)[C@H]1O` [STREPTOMYCIN] the MIC [1] was 0.31 µg/mL.
